{
  "source": "paper doi:10.1101/2025.04.25.650653",
  "about": "“Hierarchical small molecule inhibition of MYST acetyltransferases” (bioRxiv, 2025)",
  "type_in_all_cases": "cell-based",
  "key": {"H3K14Ac (KAT7)": {"system": "H3K14Ac (KAT7)", "experiment": "MYST KAT biomarker western blot, BT-549", "details": "BT-549 cells, 24 h, near the GI50 dose", "excerpt": "(§1) Figure 6. […] (C) Dependence of breast cancer cell lines on non-MYST KATs (EP300, CREBBP), MYST KATs (KAT6A, KAT6B, KAT7, KAT8, KAT5), and a MYST KAT complex member (BRPF1) derived from on DepMap CRISPR screening data. BT-549 is highlighted in orange. Lower CERES score indicates a greater dependence of the cell line on the specified gene. […] Data is representiative of n=2 biological replicates.\n(§2) Analysis of DepMap-derived CRISPR screening data supports the notion that while breast cancer models vary widely in their requirement for EP300 and CREBBP, BT-549 appears to a fairly independent line. By comparison, targeting of KAT6 and KAT7 exerts modest effects on growth while KAT8 is highly inhibitory, consistent with its designation as an essential gene (Fig. 6C).[47], [48] […] KAT3 (H3K18Ac) and KAT5 (H2A.ZK4/K7Ac) were unaffected. […]\n(§3) distinguish between tightly grouped and diffuse clusters, compactness was quantified by calculating the average pairwise Euclidean distance between all points within each cluster. Clusters with lower average […]\n(§4) were visualized as two-dimensional scatter plots with points colored according to cluster assignments, […]\n(§5) Binding structures between FOXK2 (Uniprot: Q01167) and candidate interactors identified from our chemoproteomic data were predicted using AlphaPulldown4 v0.30.7,4 with multiple sequence alignments generated via ColabFold Search v1.5.5 on the NIH HPC Biowulf Cluster. Five models were generated per protein-protein pair without using templates or paired MSAs. Local Interaction Scores (LIS) and Local Interaction Area (LIA) were calculated according to previously described formulas.5 Structural visualizations were generated using ChimeraX v1.8.\n(§6) Composite scoring of candidate FOXK2-protein interactions\n(§7) To prioritize potential interactions, we developed a composite scoring system integrating multiple AlphaFold metrics (mpDockQ/pDockQ, LIS, and LIA), building upon established approaches for protein-protein interaction analysis.6 Each interaction was evaluated against minimum acceptable thresholds (1610 for LIA, 0.073 for LIS, and 0.175 for mpDockQ/pDockQ) and assigned a weighted constant (k): 1.0 for passing all three thresholds, 0.75 for two, 0.5 for one, and zero for none. Metrics were then min-max normalized, summed, and multiplied by the weighted constant to generate final composite scores for ranking candidate interactions. All data, code, and analysis scripts can be accessed as described in Data […]\n(§8) Prediction of interface contacts […]\n(§9) P61964), were further analyzed to identify interface residue-residue contacts using both AlphaFold2 and AlphaFold3. For AlphaFold2 analysis7 we calculated Euclidean distances between alpha carbon coordinates of residues using Sci-Py's Distance Matrix Module, filtering for interactions under 8Å. […]"}, "H3K18Ac (KAT3)": {"system": "H3K18Ac (KAT3)", "experiment": "MYST KAT biomarker western blot, BT-549", "details": "BT-549 cells, 24 h, 0.1-30 μM", "excerpt": "as §1, §2, §3, §4, §5, §6, §7, §8, §9"}, "H2A.ZK4/K7Ac (KAT5)": {"system": "H2A.ZK4/K7Ac (KAT5)", "experiment": "MYST KAT biomarker western blot, BT-549", "details": "BT-549 cells, 24 h, 0.1-30 μM", "excerpt": "as §1, §2, §3, §4, §5, §6, §7, §8, §9"}, "H3K23Ac (KAT6A/B)": {"system": "H3K23Ac (KAT6A/B)", "experiment": "MYST KAT biomarker western blot, BT-549", "details": "BT-549 cells, 24 h, near the GI50 dose", "excerpt": "as §1, §2, §3, §4, §5, §6, §7, §8, §9"}, "H4K16Ac (KAT8)": {"system": "H4K16Ac (KAT8)", "experiment": "Histone biomarker bottom-up LC-MS/MS, MCF-7", "details": "for Ratio, H4_4_17 K16ac: Replicates 1-3"}},
  "note": "Values joined by “and” are separate entries in the source; they are usually repeats but may differ in a detail not shown here. Identical values can stand only once.",
  "data": [
    {"smiles": "COc1cccc(OC)c1S(=O)(=O)Nc1noc2cc(Cn3cccn3)cc(OC)c12", "note": "[PF-9363]", "values": [
      {"measurement": "inhibition of KAT7 (H3K14Ac)", "setting": "H3K14Ac (KAT7)", "value": "near complete inhibiton"},
      {"measurement": "effect on KAT3 (H3K18Ac)", "setting": "H3K18Ac (KAT3)", "value": "unaffected"},
      {"measurement": "effect on KAT5 (H2A.ZK4/K7Ac)", "setting": "H2A.ZK4/K7Ac (KAT5)", "value": "unaffected"},
      {"measurement": "inhibition of KAT6A/B (H3K23Ac)", "setting": "H3K23Ac (KAT6A/B)", "value": "near complete inhibiton"},
      {"measurement": "IC50", "setting": "H4K16Ac (KAT8); Homo sapiens, MCF7, MCF-7 cells, 24 h", "value": "~10", "unit": "µM"},
      {"measurement": "Ratio, H4_4_17 K16ac", "setting": "H4K16Ac (KAT8); KAT marker KAT8, PF-9363 0.1", "value": "0.3188 and 0.3244 and 0.3222"},
      {"measurement": "Ratio, H4_4_17 K16ac", "setting": "H4K16Ac (KAT8); KAT marker KAT8, PF-9363 1", "value": "0.2629 and 0.2802 and 0.2713"},
      {"measurement": "Ratio, H4_4_17 K16ac", "setting": "H4K16Ac (KAT8); KAT marker KAT8, PF-9363 10", "value": "0.1497 and 0 and 0.16"},
      {"measurement": "Ratio, H4_4_17 K16ac", "setting": "H4K16Ac (KAT8); KAT marker KAT8, PF-9363 30", "value": "0 (2×) and 0.08259"},
      {"measurement": "Average ratio, H4_4_17 K16ac", "setting": "H4K16Ac (KAT8); KAT marker KAT8, PF-9363 (0.1 mM)", "value": 0.3218},
      {"measurement": "Average ratio, H4_4_17 K16ac", "setting": "H4K16Ac (KAT8); KAT marker KAT8, PF-9363 (30 mM)", "value": 0.0275},
      {"measurement": "Fold-change 0.1 v 30, H4_4_17 K16ac", "setting": "H4K16Ac (KAT8); KAT marker KAT8, average ratio 0.1 v 30", "value": 11.69}
    ]}
  ]
}
